{
  "source": "patent US20190015327A1",
  "about": "“COMPOSITIONS AND METHODS FOR TREATING CONDITIONS RELATED TO LACK OF BLOOD SUPPLY, SHOCK AND NEURONAL INJURIES” (VIVACELLE BIO, INC., priority 2015, published 2019)",
  "key": {"[1]": {"conditions": "published value; cited from earlier work"}, "[2]": {"conditions": "1 atm; from The Engineering Toolbox; cited from earlier work"}, "[3]": {"test": "Nitric oxide uptake / NO content by mass spectrometry", "conditions": "100 ppm nitric oxide in helium, 60 min equilibration", "description": "Some samples (1 ml each) were left open to air in 2.0 ml tubes for 30 minutes prior to dissolved gas analysis. In other experiments the emulsion was placed into a 15 ml tube. The headspace was filled with the gas under study and the gas was allowed to enter the emulsion by equilibration over 60 minutes with the tube on its side to increase the gas emulsion interaction. 50 μL drawn from each of these fluids were injected into a Sievers purge vessel at 37° C. containing 36 ml of a mildly acidic solution consisting of 32 ml of 1M HCL and 4 ml of 0.5M ascorbic acid. […] Signals generated at m/z=32 upon injection of RL and lipid emulsion samples were integrated using Peakfit and compared to those obtained with distilled water.\nIn another set of experiments we measured the uptake of nitric oxide by a commercially available 20% soybean oil emulsion, Liposyn III 20%. This emulsion contains 20% soybean oil, 1.2% egg phospholipids and 2.5% glycerin in water. Using NaOH pH was adjusted to 8.3. […] 100 ppm nitric oxide in helium was used to purge the hesdspace for two minutes taking care not to bubble the fluid. For sixty minutes the sample was allowed to reach gas-liquid equilibrium with the tube placed on its side to maximize gas-emulsion contact.\nThe uptake of NO and O2 by a commercial 20% soybean oil emulsion, Liposyn, was measured using mass spectrometry. […] To approximate field conditions, no warming or respiratory support was provided. Next, 55% of blood volume was removed within 2 minutes. […] The time of clinical death was defined as the cessation of respiration. […] In 5 mice a volume of Ringer's lactate equal to the volume of blood removed was administered via the internal jugular vein over 2 minutes immediately after the loss of chest wall movement. […] In 6 mice a volume of Ringer's lactate equal to the volume of blood removed was administered via the carotid artery over 2 minutes. […] In the next set of experiments, infusing Ringers' lactate was delayed for 3 minutes. […] A volume of emulsion equal to the volume of blood that had been removed was infused."}},
  "note": "“And” between values parts separate entries of the source, which are not always exact repeats. Equal values may be shown once.",
  "data": [
    {"compound": "hemoglobin", "values": [
      {"measurement": "oxygen release time", "setting": "[1]", "value": 17.5, "unit": "ms"}
    ]},
    {"compound": "O", "note": "[Water]", "values": [
      {"measurement": "Oxygen Content at 25° C. and Sea level Pressure", "setting": "[2]", "value": 8.3, "unit": "mg/L"},
      {"measurement": "NO Content, Mean", "setting": "[3]", "value": 1.77, "unit": "mol/L"},
      {"measurement": "NO Content, single samples", "setting": "[3]", "value": "2.29 mol/L and 1.52 mol/L and 1.63 mol/L and 1.72 mol/L and 1.69 mol/L"}
    ]}
  ]
}
